Results: ChEMBL document CHEMBL1649478, “Comparison of tigecycline and vancomycin for treatment of experimental foreign-body infection due to methicillin-resistant Staphylococcus aureus” (Antimicrob Agents Chemother, 2009)
≈ marks a conversion by molar mass, not a printed value.

How the values were obtained:
[1] = Drug level in body fluid of Wistar rat infected with methicillin-resistant Staphylococcus aureus MRG3 at 7 mg/kg, sc BID measured on day 4 postdose; format: ADME, organism-based; design: dose 7 mg/kg, route subcutaneous; settings: in vivo
Staphylococcus aureus [2] = test: Antibacterial activity against methicillin-resistant Staphylococcus aureus MRG3 assessed as log decrease in bacterial count at 1 to 4 ug/ml by broth microdilution method; format: functional
Staphylococcus aureus [3] = test: Antibacterial activity against methicillin-resistant Staphylococcus aureus MRG3 infected in Wistar rat assessed as bacterial load in body fluid at 7 mg/kg, sc BID after 1 day; format: functional; settings: route subcutaneous
Staphylococcus aureus [4] = test: Antibacterial activity against methicillin-resistant Staphylococcus aureus MRG3 infected in Wistar rat assessed as decrease in bacterial load in body fluid at 7 mg/kg, sc BID after 8 days; format: functional; settings: route subcutaneous
[5] = Drug level in body fluid of Wistar rat infected with methicillin-resistant Staphylococcus aureus MRG3 at 7 mg/kg, sc BID measured on day 7 postdose; format: ADME, organism-based; design: dose 7 mg/kg, route subcutaneous; settings: in vivo
Staphylococcus aureus [6] = test: Antibacterial activity against methicillin-resistant Staphylococcus aureus MRG3 by broth microdilution method; format: functional
Plasma = test: Drug level in plasma of Wistar rat infected with methicillin-resistant Staphylococcus aureus MRG3 at 7 mg/kg, sc BID measured on day 4 postdose; format: ADME, organism-based; design: dose 7 mg/kg, route subcutaneous; settings: in vivo
[7] = Cmin in body fluid of Wistar rat infected with methicillin-resistant Staphylococcus aureus MRG3 at 50 mg/kg, sc measured on day 4 postdose; format: ADME, organism-based; design: dose 50 mg/kg, route subcutaneous; settings: in vivo
Staphylococcus aureus [8] = test: Antibacterial activity against methicillin-resistant Staphylococcus aureus MRG3 infected in Wistar rat assessed as decrease in bacterial load in body fluid at 50 mg/kg, sc after 8 days; format: functional; settings: route subcutaneous
[9] = Cmax in body fluid of Wistar rat infected with methicillin-resistant Staphylococcus aureus MRG3 at 50 mg/kg, sc measured on day 4 postdose; format: ADME, organism-based; design: dose 50 mg/kg, route subcutaneous
Staphylococcus aureus [10] = test: Antibacterial activity against methicillin-resistant Staphylococcus aureus MRG3 infected in Wistar rat assessed as bacterial load in body fluid at 50 mg/kg, sc after 1 day; format: functional; settings: route subcutaneous
Staphylococcus aureus [11] = test: Bactericidal activity against methicillin-resistant Staphylococcus aureus MRG3 by broth microdilution method

| SMILES | Drug uptake [1] [µg/mL] | log10CFU/ml (Staphylococcus aureus [2]) | log10CFU/ml (Staphylococcus aureus [3]) | log10CFU/ml (Staphylococcus aureus [4]) | Drug uptake [5] [µg/mL] | MIC (Staphylococcus aureus [6]) [µg/mL] | Drug uptake (Plasma) [µg/mL] | Cmin [7] [ng/mL] | log10CFU/ml (Staphylococcus aureus [8]) | Cmax [9] [ng/mL] | log10CFU/ml (Staphylococcus aureus [10]) | MBC (Staphylococcus aureus [11]) [µg/mL] |
| --- | --- | --- | --- | --- | --- | --- | --- | --- | --- | --- | --- | --- |
| CN(C)c1cc(NC(=O)CNC(C)(C)C)c(O)c2c1C[C@H]1C[C@H]3[C@H](N(C)C)C(O)=C(C(N)=O)C(=O)[C@@]3(O)C(O)=C1C2=O [TIGECYCLINE] | 0.39 | 2 | 6.92 | 0.62 | 0.33 | 0.5 (≈ 0.854 µM) | 1.87 | – | – | – | – | – |
| CN[C@H](CC(C)C)C(=O)N[C@H]1C(=O)N[C@@H](CC(N)=O)C(=O)N[C@H]2C(=O)N[C@H]3C(=O)N[C@H](C(=O)N[C@H](C(=O)O)c4cc(O)cc(O)c4-c4cc3ccc4O)[C@H](O)c3ccc(c(Cl)c3)Oc3cc2cc(c3O[C@@H]2O[C@H](CO)[C@@H](O)[C@H](O)[C@H]2O[C@H]2C[C@](C)(N)[C@H](O)[C@H](C)O2)Oc2ccc(cc2Cl)[C@H]1O [VANCOMYCIN] | – | – | – | – | – | – | – | 2000 | 0.76 | 12000 | 6.7 | 2 (≈ 1.38 µM) |
